In brackets after ≈: the same amount, converted by molar mass.
What was measured:
Staphylococcus aureus [1] = assay: Minimum inhibitory concentration against Staphylococcus aureus OC4172 in presence of mouse serum; type: functional
Staphylococcus aureus [2] = assay: Minimum inhibitory concentration against Staphylococcus aureus OC4172; type: functional
Haemophilus influenzae = assay: Minimum inhibitory concentration against Haemophilus influenzae OC4482
Streptococcus pneumoniae [3] = assay: Minimum inhibitory concentration against Streptococcus pneumoniae OC4051
Streptococcus pneumoniae [4] = assay: Minimum inhibitory concentration against Streptococcus pneumoniae OC4421
Streptococcus pneumoniae [5] = assay: Minimum inhibitory concentration against Streptococcus pneumoniae OC9132
[6] = system: Staphylococcus haemolyticus; assay: Minimum inhibitory concentration against Staphylococcus haemolyticus OC3882
[7] = system: Staphylococcus haemolyticus; assay: Minimum inhibitory concentration against Staphylococcus haemolyticus OC4545
Mus musculus [8] = assay: Effective dose against Staphylococcus aureus infected murine was tested after subcutaneous injection; type: functional; conditions: sc
Mus musculus [9] = species: Mus musculus; assay: Effective dose against Staphylococcus aureus infected murine was tested after peroral injection; type: functional
Mus musculus [10] = assay: Percent survival of Staphylococcus aureus infected murine was tested after peroral injection of 20 mg/kg dose; type: functional; conditions: route oral
Mus musculus [11] = assay: Percent survival of Staphylococcus aureus infected murine was tested after subcutaneous injection of 10 mg/kg dose; type: functional; conditions: sc

Structure (SMILES)	MIC (Staphylococcus aureus [1]) [µg/mL]	MIC (Staphylococcus aureus [2]) [µg/mL]	MIC (Haemophilus influenzae) [µg/mL]	MIC (Streptococcus pneumoniae [3]) [µg/mL]	MIC (Streptococcus pneumoniae [4]) [µg/mL]	MIC (Streptococcus pneumoniae [5]) [µg/mL]	MIC [6] [µg/mL]	MIC [7] [µg/mL]	ED50 (Mus musculus [8]) [mg/kg]	ED50 (Mus musculus [9]) [mg/kg]	survival at 20 mg/kg (Mus musculus [10]) [%]	survival at 10 mg/kg (Mus musculus [11]) [%]
CC[C@H]1OC(=O)C(C)C(=O)[C@H](C)[C@@H](O[C@@H]2O[C@H](C)C[C@H](N(C)C)[C@H]2O)[C@](C)(OC(=O)NCc2ccccc2)C[C@@H](C)C(=O)[C@H](C)[C@H]2NC(=O)O[C@@]21C (some centres not stated)	8	4 (≈ 5.47 µM)	16 (≈ 21.9 µM)	8 (≈ 10.9 µM)	0.25 (≈ 0.342 µM)	1 (≈ 1.37 µM)	> 16	> 16	–	–	–	–
CC[C@H]1OC(=O)C(C)C(=O)[C@H](C)[C@@H](O[C@@H]2O[C@H](C)C[C@H](N(C)C)[C@H]2O)[C@](C)(OC(=O)N/C=C/c2ccc(-c3ccncc3)cc2)C[C@@H](C)C(=O)[C@H](C)[C@H]2NC(=O)O[C@@]21C (some centres not stated)	2	0.5 (≈ 0.609 µM)	8 (≈ 9.74 µM)	0.5 (≈ 0.609 µM)	0.12 (≈ 0.146 µM)	0.03 (≈ 0.0365 µM)	2 (≈ 2.44 µM)	> 16	–	–	–	–
CC[C@H]1OC(=O)C(C)C(=O)[C@H](C)[C@@H](O[C@@H]2O[C@H](C)C[C@H](N(C)C)[C@H]2O)[C@](C)(OC(=O)N/C=C/c2ccc(-c3ncccn3)cc2)C[C@@H](C)C(=O)[C@H](C)[C@H]2NC(=O)O[C@@]21C (some centres not stated)	0.25	0.12 (≈ 0.146 µM)	4 (≈ 4.87 µM)	0.06 (≈ 0.073 µM)	0.06 (≈ 0.073 µM)	0.03 (≈ 0.0365 µM)	0.12 (≈ 0.146 µM)	> 16	1.8	15	40	100
CC[C@H]1OC(=O)C(C)C(=O)[C@H](C)[C@@H](O[C@@H]2O[C@H](C)C[C@H](N(C)C)[C@H]2O)[C@](C)(OC(=O)Nc2ccccc2)C[C@@H](C)C(=O)[C@H](C)[C@H]2NC(=O)O[C@@]21C (some centres not stated)	1	2 (≈ 2.79 µM)	8 (≈ 11.1 µM)	8 (≈ 11.1 µM)	0.06 (≈ 0.0836 µM)	0.03 (≈ 0.0418 µM)	> 16	> 16	–	–	–	–
CC[C@H]1OC(=O)C(C)C(=O)[C@H](C)[C@@H](O[C@@H]2O[C@H](C)C[C@H](N(C)C)[C@H]2O)[C@](C)(OC(=O)N/C=C/c2ccccc2)C[C@@H](C)C(=O)[C@H](C)[C@H]2NC(=O)O[C@@]21C (some centres not stated)	2	0.25 (≈ 0.336 µM)	4 (≈ 5.38 µM)	0.5 (≈ 0.672 µM)	0.06 (≈ 0.0807 µM)	0.06 (≈ 0.0807 µM)	4 (≈ 5.38 µM)	> 16	–	–	–	–
CC[C@H]1OC(=O)C(C)C(=O)[C@H](C)[C@@H](O[C@@H]2O[C@H](C)C[C@H](N(C)C)[C@H]2O)[C@](C)(OC(=O)N/C=C/c2ccc(-c3cccnc3)cc2)C[C@@H](C)C(=O)[C@H](C)[C@H]2NC(=O)O[C@@]21C (some centres not stated)	1	0.25 (≈ 0.305 µM)	4 (≈ 4.87 µM)	0.12 (≈ 0.146 µM)	0.25 (≈ 0.305 µM)	0.03 (≈ 0.0365 µM)	1 (≈ 1.22 µM)	> 16	–	–	–	–
CC[C@H]1OC(=O)C(C)C(=O)[C@H](C)[C@@H](O[C@@H]2O[C@H](C)C[C@H](N(C)C)[C@H]2O)[C@](C)(OC(=O)N/C=C/c2ccc(-n3cccn3)cc2)C[C@@H](C)C(=O)[C@H](C)[C@H]2NC(=O)O[C@@]21C (some centres not stated)	0.25	0.12 (≈ 0.148 µM)	4 (≈ 4.94 µM)	0.06 (≈ 0.0741 µM)	0.06 (≈ 0.0741 µM)	0.03 (≈ 0.037 µM)	0.12 (≈ 0.148 µM)	> 16	7.1	> 30	60	80
CC[C@H]1OC(=O)[C@H](C)[C@@H](O[C@H]2C[C@@](C)(OC)[C@@H](O)[C@H](C)O2)[C@H](C)[C@@H](O[C@@H]2O[C@H](C)C[C@H](N(C)C)[C@H]2O)[C@](C)(O)C[C@@H](C)C(=O)[C@H](C)[C@@H](O)[C@]1(C)O [ERYTHROMYCIN]	0.06	0.5 (≈ 0.681 µM)	4 (≈ 5.45 µM)	> 16	4 (≈ 5.45 µM)	0.06 (≈ 0.0818 µM)	> 16	> 16	–	–	–	–
CC[C@H]1OC(=O)[C@H](C)C(=O)[C@H](C)[C@@H](O[C@@H]2O[C@H](C)C[C@H](N(C)C)[C@H]2O)[C@](C)(OC)C[C@@H](C)C(=O)[C@H](C)[C@H]2N(CCCCn3cnc(-c4cccnc4)c3)C(=O)O[C@]12C [TELITHROMYCIN]	0.5	0.12 (≈ 0.148 µM)	2 (≈ 2.46 µM)	0.06 (≈ 0.0739 µM)	0.12 (≈ 0.148 µM)	≤ 0.01	0.25 (≈ 0.308 µM)	> 16	4.4	15	–	–
